Assay results reported in patent US4565830A, “Method of ameliorating the subjective symptoms and objective signs in congestive heart failure” (priority 1981, dated 1986).
Read-outs that look alike come from different tables or passages of the source.

How the values were obtained:
[1] = Acute toxicity in Wistar male mice; format: in vivo
Description: Each of 10 Wistar male mice, weighing 16-18 g, was administered with 7 g/kg of taurine (as an aqueous solution of 100 ml/kg).

[2] = tested on: patients with heart failure; format: in vivo, human patients; set-up: key to Severity After, Score: summed symptom/sign points; higher = worse heart failure; conditions: for Severity After, Score / Severity After, NYHA: 2 g twice daily, granules
Description: Twenty-four patients with heart failure were administered every day, two doses containing 2 g each of taurine as granules, and then monitored. The underlying cause of heart failure and the combined therapeutic agents (+: combined, -: not combined) for each patient are shown in Table 2. The therapeutic agents combined with taurine were standard agents which have long been used. Most of the patients had not been improved or have been even worsened under the therapeutic agents in Table 2, prior to the new therapeutic modality of this invention being used. The severity of heart failure was expressed by NYHA Function Class (I to IV, mild to severe according to New York Heart Association) and a score based on observation of clinical symptoms and signs as shown in Table 3. The presence of a symptom or sign was given the point value indicated in the right column and the values for each of the symptoms and signs were summed up for the score. An increase in the score corresponds to a worsening in the patient's heart condition. […]

[3] = tested on: guinea pigs; conditions: Dietrich & Diacono 1971; cited from earlier work
[4] = 7 g/kg as aqueous solution 100 ml/kg, 7 days observation, route not given

Q: Which behavioral changes [1, 4] does the source give for NCCS(=O)(=O)O [taurine, 2-aminoethanesulfonic acid] here?
A: The behavioral changes was “nor behavioral changes”.

Q: What about the death [1, 4] of the same compound?
A: Its death is “neither death”.

Q: What about the “death and behavioral changes” value ([1]; intravenous, same results = neither death nor behavioral changes) of the same compound?
A: The value was “the same results were obtained”.

Q: And the adverse reaction ([2]; human, in vivo)?
A: The adverse reaction was “without any adverse reaction”.

Q: And the “Severity After, Score” value ([2]; patient 1, week 20, before 7.5, with digitalis)?
A: Its value is 2.

Q: What about the “Severity After, NYHA” value ([2]; patient 1, week 20, before II, with digitalis) of the same compound?
A: The value was “I”.

Q: What about the “Severity After, Score” value ([2]; patient 2, week 4, before 6.5, with digitalis, diuretics) of the same compound?
A: The value was 6.5.

Q: And the “Severity After, Score” value ([2]; patient 3, week 8, before 13, with digitalis, diuretics)?
A: Its value is 5.

Q: And the “Severity After, Score” value ([2]; patient 4, week 32, before 12, with digitalis, diuretics, vasodilators)?
A: Its value is 2.5.

Q: And the “Severity After, NYHA” value ([2]; patient 4, week 32, before III, with digitalis, diuretics, vasodilators)?
A: The value was “I”.

Q: And the “Severity After, Score” value ([2]; patient 5, week 8, before 10, with digitalis, diuretics)?
A: The value was 2.5.

Q: What about the “Severity After, Score” value ([2]; patient 6, week 8, before 5, no combined agent) of the same compound?
A: The value was 2.5.

Q: And the “Severity After, Score” value ([2]; patient 7, week 8, before 6, with digitalis, diuretics)?
A: The value was 3.

Q: What about the “Severity After, Score” value ([2]; patient 8, week 4, before 6, with digitalis, diuretics) of the same compound?
A: Its value is 5.

Q: What about the “Severity After, Score” value ([2]; patient 9, week 4, before 4, no combined agent) of the same compound?
A: The value was 3.

Q: And the “Severity After, Score” value ([2]; patient 10, week 4, before 9.5, with diuretics, vasodilators)?
A: Its value is 5.

Q: What about the “Severity After, Score” value ([2]; patient 11, week 6, before 9.5, with diuretics, vasodilators) of the same compound?
A: The value was 6.

Q: What about the “Severity After, Score” value ([2]; patient 12, week 2, before 3.5, no combined agent) of the same compound?
A: Its value is 3.5.

Q: And the “Severity After, Score” value ([2]; patient 13, week 2, before 8.5, with diuretics)?
A: Its value is 7.5.

Q: And the “Severity After, Score” value ([2]; patient 14, week 2, before 3.5, with diuretics)?
A: The value was 3.

Q: What about the “Severity After, Score” value ([2]; patient 15, week 4, before 4.5, with diuretics) of the same compound?
A: Its value is 1.

Q: What about the “Severity After, Score” value ([2]; patient 16, week 4, before 5, with digitalis, diuretics, vasodilators) of the same compound?
A: Its value is 0.5.

Q: And the “Severity After, Score” value ([2]; patient 17, week 4, before 9, with digitalis, diuretics)?
A: The value was 1.

Q: What about the “Severity After, Score” value ([2]; patient 18, week 4, before 13, with digitalis, diuretics) of the same compound?
A: The value was 9.

Q: And the “Severity After, Score” value ([2]; patient 19, week 4, before 5.5, with digitalis, diuretics)?
A: Its value is 4.5.

Q: And the “Severity After, Score” value ([2]; patient 20, week 2, before 5, with diuretics)?
A: The value was 3.

Q: And the “Severity After, Score” value ([2]; patient 21, week 4, before 9.5, combined agent ambiguous (none / diuretics))?
A: Its value is 4.

Q: And the “Severity After, Score” value ([2]; patient 22, week 4, before 4.5, with diuretics)?
A: Its value is 3.

Q: And the “Severity After, Score” value ([2]; patient 23, week 4, before 5.5, no combined agent)?
A: Its value is 5.5.

Q: What about the “Severity After, Score” value ([2]; patient 24, week 4, before 9, with digitalis, diuretics) of the same compound?
A: Its value is 4.

Q: And the “improvement with combined use of taurine” value ([2]; patients not controllable or worsened under prolonged conventional agents)?
A: The value was “unexpectedly improved”.

Q: What about the “subjective symptoms and objective signs of heart failure” value ([2]; patients with heart failure, general statement) of the same compound?
A: The value was “effectively ameliorates the subjective symptoms and objective signs of heart failure”.

Q: And the positive inotropic activity [3]?
A: Its positive inotropic activity is “positive inotropic activity”.
